Data published in patent publication US8921362B2, “6,7-dialkoxy quinazoline derivatives and methods of treating drug resistant and other tumors” (Natco Pharma Limited, priority 2008, dated 2014).

Assays:
Experiment in all cases: KinomeScan
Type in all cases: binding
Conditions in all cases: read-out: % Ctrl @ 10000 nM
CLK4 = biological target: T1, CLK4 (Homo sapiens, UniProt Q9HAZ1)
T1 construct: host or cells: T7 phage in E. coli host derived from BL21
Procedure, shortened: (§1)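 Lysates from phage-infected E. coli (32° C., shaking until lysis) were filtered and exposed to biotin-blocked ligand beads together with test compound. Eluted phage was counted by quantitative PCR.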

MAP4K4 = biological target: T2, MAP4K4 (Homo sapiens, UniProt O95819)
T2 construct: host or cells: E. coli host derived from the BL21 strain, infected with T7 phage
Procedure, shortened: as §1

MEK6 = biological target: T3, MEK6 (Homo sapiens, UniProt P52564)
T3 construct: host or cells: E. coli host derived from the BL21 strain, infected with T7 phage
Procedure, shortened: as §1

MEK2 = biological target: T4, MEK2 (Homo sapiens, UniProt P36507)
T4 construct: host or cells: E. coli host derived from the BL21 strain, infected with T7 phage
Procedure, shortened: as §1

KIT = biological target: T5, KIT (Homo sapiens, UniProt P10721)
T5 construct: host or cells: T7 phage grown in E. coli host derived from BL21
Procedure, shortened: as §1

ZAP70 = biological target: T6, ZAP70 (Homo sapiens, UniProt P43403)
T6 construct: host or cells: T7 phage grown in an E. coli host derived from BL21
Procedure, shortened: as §1

MINK = biological target: T7, MINK (Homo sapiens, UniProt Q8N4C8)
T7 construct: host or cells: E. coli host derived from the BL21 strain, infected with T7 phage
Procedure, shortened: as §1

DAPK3 = biological target: T8, DAPK3 (Homo sapiens, UniProt O43293)
T8 construct: purchased Ambit Biosciences Corp (KinomeScan); host or cells: T7 phage in E. coli host derived from BL21
Procedure, shortened: as §1

SYK = biological target: T9, SYK (Homo sapiens, UniProt P43405)
T9 construct: host or cells: T7 phage grown in E. coli (BL21-derived)
Procedure, shortened: as §1

ABL1 = biological target: T10, ABL1 (Homo sapiens, UniProt P00519)
T10 construct: host or cells: E. coli (BL21-derived), T7 phage lysate
Procedure, shortened: as §1

BRSK1 = biological target: T11, BRSK1 (Homo sapiens, UniProt Q8TDC3)
T11 construct: host or cells: E. coli host derived from BL21
Procedure, shortened: as §1

MLK3 = biological target: T12, MLK3 (Homo sapiens, UniProt Q16584)
T12 construct: host or cells: T7 phage grown in E. coli host derived from BL21
Procedure, shortened: as §1

TIE2 = biological target: T13, TIE2 (Homo sapiens, UniProt Q02763)
T13 construct: host or cells: E. coli host derived from BL21, T7 phage
Procedure, shortened: as §1

MST2 = biological target: T14, MST2 (Homo sapiens, UniProt Q13188)
T14 construct: host or cells: T7 phage grown in E. coli host derived from BL21
Procedure, shortened: as §1

AKT1 = biological target: T15, AKT1 (Homo sapiens, UniProt P31749)
T15 construct: host or cells: E. coli (BL21-derived), T7 phage lysate
Procedure, shortened: as §1

MARK1 = biological target: T16, MARK1 (Homo sapiens, UniProt Q9P0L2)
T16 construct: host or cells: E. coli host derived from the BL21 strain, infected with T7 phage
Procedure, shortened: as §1

CAMK2G = biological target: T17, CAMK2G (Homo sapiens, UniProt Q13555)
T17 construct: host or cells: E. coli host derived from BL21
Procedure, shortened: as §1

p38-gamma = biological target: T18, p38-gamma (Homo sapiens, UniProt P53778)
T18 construct: host or cells: E. coli host derived from BL21, infected with T7 phage
Procedure, shortened: as §1

JNK1 = biological target: T19, JNK1 (Homo sapiens, UniProt P45983)
T19 construct: host or cells: T7 phage grown in E. coli host derived from BL21
Procedure, shortened: as §1

NEK7 = biological target: T20, NEK7 (Homo sapiens, UniProt Q8TDX7)
T20 construct: host or cells: T7 phage grown in E. coli host derived from BL21
Procedure, shortened: as §1

TIE1 = biological target: T21, TIE1 (Homo sapiens, UniProt P35590)
T21 construct: host or cells: T7 phage grown in E. coli (BL21-derived)
Procedure, shortened: as §1

YES = biological target: T22, YES (Homo sapiens, UniProt P07947)
T22 construct: host or cells: E. coli host derived from BL21, T7 phage
Procedure, shortened: as §1

p38-alpha = biological target: T23, p38-alpha (Homo sapiens, UniProt Q16539)
T23 construct: host or cells: E. coli host derived from BL21, infected with T7 phage
Procedure, shortened: as §1

FGFR2 = biological target: T24, FGFR2 (Homo sapiens, UniProt P21802)
T24 construct: host or cells: T7 phage in E. coli host derived from BL21
Procedure, shortened: as §1

NEK2 = biological target: T25, NEK2 (Homo sapiens, UniProt P51955)
T25 construct: host or cells: T7 phage grown in E. coli host derived from BL21
Procedure, shortened: as §1

MAP4K5 = biological target: T26, MAP4K5 (Homo sapiens, UniProt Q9Y4K4)
T26 construct: host or cells: E. coli host derived from the BL21 strain, infected with T7 phage
Procedure, shortened: as §1

PAK2 = biological target: T27, PAK2 (Homo sapiens, UniProt Q13177)
T27 construct: host or cells: E. coli host derived from BL21, infected with T7 phage
Procedure, shortened: as §1

PDPK1 = biological target: T28, PDPK1 (Homo sapiens, UniProt O15530)
T28 construct: host or cells: E. coli host derived from BL21, infected with T7 phage
Procedure, shortened: as §1

MEK4 = biological target: T29, MEK4 (Homo sapiens, UniProt P45985)
T29 construct: host or cells: E. coli host derived from the BL21 strain, infected with T7 phage
Procedure, shortened: as §1

ABL2 = biological target: T30, ABL2 (Homo sapiens, UniProt P42684)
T30 construct: host or cells: E. coli (BL21-derived), T7 phage lysate
Procedure, shortened: as §1

MERTK = biological target: T31, MERTK (Homo sapiens, UniProt Q12866)
T31 construct: host or cells: E. coli host derived from the BL21 strain, infected with T7 phage
Procedure, shortened: as §1

CSK = biological target: T32, CSK (Homo sapiens, UniProt P41240)
T32 construct: host or cells: T7 phage in E. coli host derived from BL21
Procedure, shortened: as §1

PYK2 = biological target: T33, PYK2 (Homo sapiens, UniProt Q14289)
T33 construct: host or cells: E. coli host derived from BL21, T7 phage display
Procedure, shortened: as §1

TLK2 = biological target: T34, TLK2 (Homo sapiens, UniProt Q86UE8)
T34 construct: host or cells: E. coli host derived from BL21, T7 phage
Procedure, shortened: as §1

LOK = biological target: T35, LOK (Homo sapiens, UniProt O94804)
T35 construct: host or cells: E. coli host derived from the BL21 strain, infected with T7 phage
Procedure, shortened: as §1

T16 sequence (Q9P0L2 whole entry): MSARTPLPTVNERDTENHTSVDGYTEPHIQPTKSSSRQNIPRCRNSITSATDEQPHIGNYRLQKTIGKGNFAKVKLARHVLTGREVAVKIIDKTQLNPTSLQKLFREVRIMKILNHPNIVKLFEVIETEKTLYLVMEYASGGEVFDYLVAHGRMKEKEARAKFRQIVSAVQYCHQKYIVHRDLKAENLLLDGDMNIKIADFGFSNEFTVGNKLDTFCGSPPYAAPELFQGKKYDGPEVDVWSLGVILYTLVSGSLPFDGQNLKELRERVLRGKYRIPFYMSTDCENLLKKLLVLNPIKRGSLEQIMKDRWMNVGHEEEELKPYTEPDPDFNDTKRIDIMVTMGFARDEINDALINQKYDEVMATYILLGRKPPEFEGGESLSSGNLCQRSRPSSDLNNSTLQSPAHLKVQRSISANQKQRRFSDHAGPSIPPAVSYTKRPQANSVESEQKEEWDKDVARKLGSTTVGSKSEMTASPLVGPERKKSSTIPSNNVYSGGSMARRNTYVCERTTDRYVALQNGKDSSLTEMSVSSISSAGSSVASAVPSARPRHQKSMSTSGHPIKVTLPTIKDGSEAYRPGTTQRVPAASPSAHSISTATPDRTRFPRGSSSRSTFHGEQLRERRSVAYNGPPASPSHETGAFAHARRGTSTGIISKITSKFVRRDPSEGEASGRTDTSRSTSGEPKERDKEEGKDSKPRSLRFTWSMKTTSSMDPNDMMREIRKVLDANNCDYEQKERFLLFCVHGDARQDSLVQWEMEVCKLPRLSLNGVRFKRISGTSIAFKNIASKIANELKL
T5 sequence (P10721 26-976): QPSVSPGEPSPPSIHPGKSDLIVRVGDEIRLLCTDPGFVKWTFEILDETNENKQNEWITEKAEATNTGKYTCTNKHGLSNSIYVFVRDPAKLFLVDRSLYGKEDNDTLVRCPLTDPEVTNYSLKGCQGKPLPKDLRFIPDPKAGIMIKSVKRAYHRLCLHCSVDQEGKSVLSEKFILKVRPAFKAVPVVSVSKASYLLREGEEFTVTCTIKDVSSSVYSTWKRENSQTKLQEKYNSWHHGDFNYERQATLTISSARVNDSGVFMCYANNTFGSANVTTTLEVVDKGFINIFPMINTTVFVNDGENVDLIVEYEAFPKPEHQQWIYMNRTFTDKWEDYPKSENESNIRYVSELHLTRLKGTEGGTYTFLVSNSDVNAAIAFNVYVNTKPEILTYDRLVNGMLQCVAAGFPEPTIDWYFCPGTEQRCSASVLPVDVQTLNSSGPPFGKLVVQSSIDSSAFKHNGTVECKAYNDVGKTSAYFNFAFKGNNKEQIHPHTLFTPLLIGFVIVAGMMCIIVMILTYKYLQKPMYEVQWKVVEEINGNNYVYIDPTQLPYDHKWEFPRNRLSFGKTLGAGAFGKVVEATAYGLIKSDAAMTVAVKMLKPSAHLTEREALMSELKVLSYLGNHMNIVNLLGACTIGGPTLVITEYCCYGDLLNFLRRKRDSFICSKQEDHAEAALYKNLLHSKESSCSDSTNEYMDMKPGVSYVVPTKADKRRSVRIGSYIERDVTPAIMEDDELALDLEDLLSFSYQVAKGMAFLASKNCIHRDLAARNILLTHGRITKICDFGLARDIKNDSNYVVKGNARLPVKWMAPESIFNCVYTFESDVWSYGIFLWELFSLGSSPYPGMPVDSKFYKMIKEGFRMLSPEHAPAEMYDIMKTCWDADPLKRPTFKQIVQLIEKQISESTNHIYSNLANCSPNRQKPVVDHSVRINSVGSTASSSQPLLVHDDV
T21 sequence (P35590 22-1138): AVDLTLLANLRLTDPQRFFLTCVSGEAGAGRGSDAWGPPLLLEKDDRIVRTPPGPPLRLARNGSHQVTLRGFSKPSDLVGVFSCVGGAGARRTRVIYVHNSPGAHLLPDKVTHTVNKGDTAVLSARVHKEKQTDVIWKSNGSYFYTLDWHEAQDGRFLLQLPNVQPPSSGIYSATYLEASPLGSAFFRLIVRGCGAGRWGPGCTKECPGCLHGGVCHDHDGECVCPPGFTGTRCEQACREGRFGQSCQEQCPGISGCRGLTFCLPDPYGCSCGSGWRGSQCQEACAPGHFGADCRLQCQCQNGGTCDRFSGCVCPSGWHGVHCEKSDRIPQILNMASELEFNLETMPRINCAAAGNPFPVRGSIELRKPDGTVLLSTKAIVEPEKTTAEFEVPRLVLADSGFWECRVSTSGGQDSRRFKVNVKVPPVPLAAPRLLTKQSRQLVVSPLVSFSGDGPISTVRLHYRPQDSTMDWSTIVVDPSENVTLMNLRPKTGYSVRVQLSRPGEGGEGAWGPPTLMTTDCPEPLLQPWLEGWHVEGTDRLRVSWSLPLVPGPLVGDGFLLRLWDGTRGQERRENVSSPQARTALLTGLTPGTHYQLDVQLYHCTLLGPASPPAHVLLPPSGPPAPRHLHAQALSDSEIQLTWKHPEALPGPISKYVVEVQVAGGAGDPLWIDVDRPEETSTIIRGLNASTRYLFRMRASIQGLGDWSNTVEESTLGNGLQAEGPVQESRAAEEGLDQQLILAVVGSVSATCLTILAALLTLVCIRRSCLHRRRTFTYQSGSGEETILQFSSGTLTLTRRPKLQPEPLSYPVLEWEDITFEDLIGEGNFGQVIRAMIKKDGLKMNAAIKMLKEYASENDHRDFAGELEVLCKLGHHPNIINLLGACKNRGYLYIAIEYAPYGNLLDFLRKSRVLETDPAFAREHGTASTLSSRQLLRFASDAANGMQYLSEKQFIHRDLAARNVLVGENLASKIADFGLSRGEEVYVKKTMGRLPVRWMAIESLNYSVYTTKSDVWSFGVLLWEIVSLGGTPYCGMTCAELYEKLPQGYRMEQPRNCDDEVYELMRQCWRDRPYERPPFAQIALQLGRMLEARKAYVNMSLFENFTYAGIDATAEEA
T3 sequence (P52564 whole entry): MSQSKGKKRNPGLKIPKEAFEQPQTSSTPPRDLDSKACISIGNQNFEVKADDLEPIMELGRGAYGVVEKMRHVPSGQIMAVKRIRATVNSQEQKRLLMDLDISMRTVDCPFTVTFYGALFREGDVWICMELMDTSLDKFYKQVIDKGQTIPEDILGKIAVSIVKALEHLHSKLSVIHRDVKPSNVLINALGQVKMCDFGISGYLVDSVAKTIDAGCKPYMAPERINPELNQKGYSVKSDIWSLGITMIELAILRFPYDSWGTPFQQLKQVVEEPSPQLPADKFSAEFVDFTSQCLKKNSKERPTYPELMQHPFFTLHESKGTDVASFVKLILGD
T23 sequence (Q16539 whole entry): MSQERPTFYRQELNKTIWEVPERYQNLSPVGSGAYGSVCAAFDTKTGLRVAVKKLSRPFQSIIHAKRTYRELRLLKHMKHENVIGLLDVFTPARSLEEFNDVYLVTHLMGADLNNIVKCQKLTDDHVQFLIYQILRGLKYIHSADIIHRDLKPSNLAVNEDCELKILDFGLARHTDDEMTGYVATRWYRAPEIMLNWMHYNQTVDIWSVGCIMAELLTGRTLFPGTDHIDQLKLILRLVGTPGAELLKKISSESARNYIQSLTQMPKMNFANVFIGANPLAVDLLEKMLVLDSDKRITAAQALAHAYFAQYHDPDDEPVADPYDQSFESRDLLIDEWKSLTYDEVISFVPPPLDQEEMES
T26 sequence (Q9Y4K4 whole entry): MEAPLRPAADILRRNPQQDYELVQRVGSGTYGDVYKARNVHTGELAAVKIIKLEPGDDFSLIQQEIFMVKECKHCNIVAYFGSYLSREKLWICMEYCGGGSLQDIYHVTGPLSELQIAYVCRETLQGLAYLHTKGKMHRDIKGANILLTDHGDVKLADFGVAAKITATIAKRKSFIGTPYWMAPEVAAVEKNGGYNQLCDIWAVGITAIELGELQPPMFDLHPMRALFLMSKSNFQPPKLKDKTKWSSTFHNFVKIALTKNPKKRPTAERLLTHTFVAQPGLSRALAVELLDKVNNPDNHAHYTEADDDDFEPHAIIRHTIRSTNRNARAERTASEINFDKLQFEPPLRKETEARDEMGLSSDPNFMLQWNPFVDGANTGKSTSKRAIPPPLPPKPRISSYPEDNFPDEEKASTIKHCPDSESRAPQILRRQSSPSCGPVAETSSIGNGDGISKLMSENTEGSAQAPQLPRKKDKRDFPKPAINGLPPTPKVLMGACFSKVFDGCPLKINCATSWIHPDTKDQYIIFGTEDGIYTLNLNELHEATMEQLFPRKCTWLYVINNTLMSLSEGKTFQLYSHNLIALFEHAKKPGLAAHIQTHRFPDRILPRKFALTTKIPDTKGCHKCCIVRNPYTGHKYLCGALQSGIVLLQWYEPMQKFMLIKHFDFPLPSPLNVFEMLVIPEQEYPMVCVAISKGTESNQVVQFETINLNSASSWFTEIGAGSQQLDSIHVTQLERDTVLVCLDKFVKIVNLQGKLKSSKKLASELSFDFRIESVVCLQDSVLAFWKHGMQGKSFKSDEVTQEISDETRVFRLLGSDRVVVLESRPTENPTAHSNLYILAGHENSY
T29 sequence (P45985 whole entry): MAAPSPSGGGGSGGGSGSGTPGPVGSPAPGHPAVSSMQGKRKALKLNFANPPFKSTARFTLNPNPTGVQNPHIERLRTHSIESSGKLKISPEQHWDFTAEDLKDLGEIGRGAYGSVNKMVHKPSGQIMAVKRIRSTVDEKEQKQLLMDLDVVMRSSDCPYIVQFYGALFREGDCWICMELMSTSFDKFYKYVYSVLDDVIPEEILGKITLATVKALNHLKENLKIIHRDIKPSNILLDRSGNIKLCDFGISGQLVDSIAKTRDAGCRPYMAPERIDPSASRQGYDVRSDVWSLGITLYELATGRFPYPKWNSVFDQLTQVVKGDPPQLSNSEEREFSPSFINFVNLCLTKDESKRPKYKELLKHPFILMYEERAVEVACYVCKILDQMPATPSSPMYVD

## C#Cc1cccc(Nc2ncnc3cc(OC)c(OCCCN4CCOCC4)cc23)c1 [NRC-2694, N-(3-ethynylphenyl)-7-methoxy-6-[3-(4-morpholinyl)propoxy]-4-quinazolinamine]
CLK4
  remaining binding at 10 µM: 17%
MAP4K4
  remaining binding at 10 µM: 20%
MEK6
  remaining binding at 10 µM: 75%
MEK2
  remaining binding at 10 µM: 44%
KIT
  remaining binding at 10 µM: 26%
ZAP70
  remaining binding at 10 µM: 100%
MINK
  remaining binding at 10 µM: 16%
DAPK3
  remaining binding at 10 µM: 34%
SYK
  remaining binding at 10 µM: 56%
ABL1
  remaining binding at 10 µM: 67%
BRSK1
  remaining binding at 10 µM: 53%
MLK3
  remaining binding at 10 µM: 72%
TIE2
  remaining binding at 10 µM: 76%
MST2
  remaining binding at 10 µM: 85%
AKT1
  remaining binding at 10 µM: 100%
MARK1
  remaining binding at 10 µM: 56%
CAMK2G
  remaining binding at 10 µM: 58%
p38-gamma
  remaining binding at 10 µM: 97%
JNK1
  remaining binding at 10 µM: 99%
NEK7
  remaining binding at 10 µM: 78%
TIE1
  remaining binding at 10 µM: 52%
YES
  remaining binding at 10 µM: 41%
p38-alpha
  remaining binding at 10 µM: 89%
FGFR2
  remaining binding at 10 µM: 100%
NEK2
  remaining binding at 10 µM: 63%
MAP4K5
  remaining binding at 10 µM: 23%
PAK2
  remaining binding at 10 µM: 67%
PDPK1
  remaining binding at 10 µM: 94%
MEK4
  remaining binding at 10 µM: 92%
ABL2
  remaining binding at 10 µM: 43%
MERTK
  remaining binding at 10 µM: 48%
CSK
  remaining binding at 10 µM: 53%
PYK2
  remaining binding at 10 µM: 71%
TLK2
  remaining binding at 10 µM: 82%
LOK
  remaining binding at 10 µM: 0%
